Experimental data from PMC6767265, “Cytotoxicity and Apoptosis Induction of Coumarins and Carbazole Alkaloids from Clausena Harmandiana” (Molecules, 2019).
Marks after values point to notes of the source that are not given here.

Columns and labels:
[1] = DPPH radical scavenging assay; type: biochemical
Protocol: The 2,2–diphenyl–1–picrylhydrazyl (DPPH) radical scavenging assay was conducted as per the previous method. Briefly, the stock solutions of 10 mM DPPH was prepared in methanol. The DPPH was mixed with samples (100 µL each) at various concentrations (1−500 µM) in 96 wells plate and incubated for 30 min in a dark condition. The absorbance of DPPH radical was measured at 517 nm using a microplate reader (Tecan, Lyon, France). Trolox was used as a positive control. The half maximum inhibitory concentration (IC50 value) was calculated from the plot of percentage of DDPH radical inhibition versus concentration of samples using the following formula: % DPPH radical inhibition = [(Ab − As)/Ab] × 100,(1) where Ab = absorbance of the reagent blank, and As = absorbance of the sample. Each experiment was done in five replications and results are expressed as average values.

[2] = Ferric reducing antioxidant power (FRAP) assay; type: biochemical; conditions: 100 µM compound
Protocol: FRAP assay was performed following the pervious study with slight modification. FRAP reagent was prepared by mixing 300 mM acetate buffer (pH 3.6), 20 mM ferric chloride solution and 10 mM TPTZ solution in the ratio of 10:1:1 and incubated at 37 °C for 30 min. Then, 150 µL of FRAP reagent was added with 50 µL of the sample (100 µM of isolated compounds or 100 µg/mL of the CH2Cl2 crude extract) in each well of the 96-wells plate. The absorbance was measured at 595 nm using microplate reader (Tecan, Lyon, France). Trolox was used as a positive control. The FRAP value was calculated from the linear equation between the absorbance and ferrous sulfate standard curves (y = 0.0548x + 0.0213, R^2 = 0.9989) and expressed as µM of ferrous sulfate equivalents.

[3] = tested on: human hepatocellular carcinoma cell line (HepG2); assay: Cell viability assay (neutral red), HepG2; type: cell-based
Protocol: (§1) The human lung adenocarcinoma cell line (SK-LU-1), human colon carcinoma cell line (HCT116), human hepatocellular carcinoma cell line (HepG2) and noncancerous African green monkey kidney epithelial cell line (Vero) were cultured in Dulbecco’s modified Eagle’s medium (DMEM) supplemented with 10% fetal bovine serum, 100 IU/mL penicillin and […] streptomycin. Cells were incubated at 37 °C with 95% air and 5% CO2 until they reached approximately 80% confluence before use.
(§2) Cell viability assay was assessed by neutral red (NR). Briefly, cells at a density of 3 × 10^4 cells/well were seeded in 96-wells plate and incubated for 24 h. The sample at concentration, ranging from 10 to 500 µM, were added and incubated for 24 h. After incubation time, cells were washed with PBS. NR reagent (50 µg/mL) was added to each well and incubated for another 2 h. After that, cells were washed with PBS and lyzed with 0.33% HCl in isopropanol. Cisplatin was used as a positive control. The absorbance of NR was detected using microplate reader (Tecan, Lyon, France) at 520 nm. The percentage of cell viability was calculated vis-à-vis the untreated cells and cytotoxicity was expressed as the inhibition concentration at 50% (IC50). The final DMSO concentration was not exceed 0.1%v/v to lessen the cytotoxicity (<10%).

[4] = tested on: human colon carcinoma cell line (HCT116); assay: Cell viability assay (neutral red), HCT116; type: cell-based
Protocol: as §1
as §2, with “The sample at concentration, ranging from 10 to 500 µM, were added and incubated for 24 h.” left out

[5] = tested on: human lung adenocarcinoma cell line (SK-LU-1); assay: Cell viability assay (neutral red), SK-LU-1; type: cell-based
Protocol: as §1
as §2, with “The sample at concentration, ranging from 10 to 500 µM, were added and incubated for 24 h.” left out

[6] = tested on: noncancerous African green monkey kidney epithelial cell line (Vero); assay: Cell viability assay (neutral red), Vero; type: cell-based; set-up: key to IC50 Vero: inactive: Inactive means cell viability percentage was >50% at the maximum concentration used (>100 µM for the compound or >100 µg/mL for the extract); conditions: 24 h, inactive = viability >50% at >100 µM
Protocol: as §1, §2

HepG2 cells = assay: Mode of cell death by Annexin V-FITC/PI staining, flow cytometry; type: cell-based, human
Description: In this study, double staining of cells by Annexin V-FITC/propidium iodide (PI) was used to differentiate apoptosis from necrosis. The stages of apoptosis can be distinguished from necrotic cell death by flow cytometry using Annexin V-FITC/PI double staining of HepG2 cells. During the early stages of apoptosis, the phosphatidylserine comprising the cell membrane will externalize to be exposed to the surface of apoptotic cells and bind with Annexin V-FITC, showing a cell dot plot in Quadrant 4. The cell dot plot is positively stained with Annexin V-FITC but negatively stained with PI (+/−). When cells are damaged or undergo a late state of apoptosis, cells will lose their membrane integrity, including nuclear membrane integrity, so that PI can pass through the nuclear membrane, showing a cell dot plot in Quadrant 2. […] During cell undergo necrotic cell death, cells are stained and appear in Quadrant 1 (−/+). Normal cells are not stained and appear in Quadrant 3 (−/−). The total apoptotic cell death percentage was counted from the percentage of cells undergoing an early state and late state of apoptosis gathering from Quadrants 4 and 2, while the necrotic cell death percentage was counted from Quadrant 1, as shown in Figure 2.
The Annexin V-FITC and PI apoptosis assay kit (BioLegend, San Diego, CA, USA) was used to determine mode of cell death as per previous report. The HepG2 cells (8 × 10^5 cell/mL) were seeded in a 24-well plate and incubated for 24 h. The compounds at a concentration of 1 x IC50 and 2 x IC50 were added and incubated for 12 and 24 h. After that, cells were washed with PBS and cold BioLegend’s cell staining buffer followed by staining with Annexin V-FITC and PI and cell were incubated in the dark for 15 min. The cells were analyzed by flow cytometry (BD FACSCanto II, BD Biosciences, San Jose, CA, USA) and the percentage of cells in different populations were calculated with FACSDiva software.

[7] = 30 min in the dark, absorbance 517 nm
[8] = cancer cells over noncancerous Vero cells

## COc1c2c(cc3oc(=O)ccc13)OC(C)(C)C=C2 [Xanthoxyletin (4), xanthoxyletin]
[1]; [7]
  DPPH Assay IC50: 63.8 ± 0.8^d µg/mL
  IC50: 247 ± 3 µM
[1]; classified from IC50 in µg/mL
  DPPH radical scavenging activity classification: low radical scavenger
[2]
  FRAP Value: 5.2 ± 0.3^f µM FeSO4 Equivalents
[2]; listed as xanthoxyletin
  FRAP Value: 5.2 µM FeSO4 Equivalents
[3]; Homo sapiens, HepG2, 24 h, neutral red
  IC50: 78.2 ± 2.2 µM
[3]; [8]
  Selectivity Index HepG2: (1.3)
[4]; Homo sapiens, HCT-116, 24 h, neutral red, inactive = viability >50% at >100 µM
  IC50: 79.8 ± 2.8 µM
[4]; [8]
  Selectivity Index HCT116: (1.3)
[5]; Homo sapiens, SK-LU-1, 24 h, neutral red, inactive = viability >50% at >100 µM
  IC50: 94.4 ± 2.2 µM
[5]; [8]
  Selectivity Index SK-LU-1: (1.1)
[6]
  IC50 Vero: inactive^cB
HepG2 cells; HepG2, 1 × IC50, 12 h
  necrotic cell death percentage (Q1, Annexin V-FITC/PI −/+): 2.5 ± 0.7%
HepG2 cells; HepG2, 1 × IC50, 24 h
  apoptotic cell death percentage (total, Quadrants 4 and 2): 49.7 ± 1.1%
  necrotic cell death percentage (Q1, Annexin V-FITC/PI −/+): 1.6 ± 0.9%
HepG2 cells; HepG2, 2 × IC50, 12 h
  apoptotic cell death percentage (total, Quadrants 4 and 2): 49.6 ± 1.2%
  necrotic cell death percentage (Q1, Annexin V-FITC/PI −/+): 2.9 ± 1.2%
HepG2 cells; HepG2, 2 × IC50, 24 h
  apoptotic cell death percentage (total, Quadrants 4 and 2): 64.2 ± 3.2%
  necrotic cell death percentage (Q1, Annexin V-FITC/PI −/+): 2.7 ± 1.1%
